Reference: patent publication US11053204B2, “Pyrimidinyloxy benzene derivatives as herbicides” (FMC Corporation, priority 2015, dated 2021)

Columns and labels:
Type in all cases: in vivo
[1] = tested on: giant foxtail (Setaria faberii); experiment: Test A preemergence, visual injury rating; conditions: 0 to 100 scale (0 no effect, 100 complete control)
Procedure, shortened: (§1)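 Injury scores run from 0, no effect, to 100, complete control, judged by eye against untreated plants roughly 10 days after treatment. Chemicals carried a surfactant in a non-phytotoxic solvent and went onto loam–sand soil preemergence or onto one- to two-leaf seedlings postemergence.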

[2] = tested on: barnyardgrass (Echinochloa crus-galli); experiment: Test A preemergence, visual injury rating; conditions: 0 to 100 scale (0 no effect, 100 complete control)
Procedure, shortened: as §1

[3] = tested on: large (Lg) crabgrass (Digitaria sanguinalis); experiment: Test A preemergence, visual injury rating; conditions: 0 to 100 scale (0 no effect, 100 complete control)
Procedure, shortened: as §1

[4] = tested on: wheat (Triticum aestivum); experiment: Test A preemergence, visual injury rating; conditions: 0 to 100 scale (0 no effect, 100 complete control)
Procedure, shortened: as §1

[5] = tested on: pigweed (Amaranthus retroflexus); experiment: Test A preemergence, visual injury rating; conditions: 0 to 100 scale (0 no effect, 100 complete control)
Procedure, shortened: as §1

[6] = tested on: velvetleaf (Abutilon theophrasti); experiment: Test A preemergence, visual injury rating; conditions: 0 to 100 scale (0 no effect, 100 complete control)
Procedure, shortened: as §1

[7] = tested on: morningglory (Ipomoea spp.); experiment: Test A preemergence, visual injury rating; conditions: 0 to 100 scale (0 no effect, 100 complete control)
Procedure, shortened: as §1

corn (Zea mays) [8] = experiment: Test A preemergence, visual injury rating; conditions: 0 to 100 scale (0 no effect, 100 complete control)
Procedure, shortened: as §1

[9] = tested on: giant foxtail (Setaria faberii); experiment: Test A postemergence, visual injury rating; conditions: 0 is no effect, 100 is complete control
Procedure, shortened: as §1

[10] = tested on: barnyardgrass (Echinochloa crus-galli); experiment: Test A postemergence, visual injury rating; conditions: 0 is no effect, 100 is complete control
Procedure, shortened: as §1

[11] = tested on: large (Lg) crabgrass (Digitaria sanguinalis); experiment: Test A postemergence, visual injury rating; conditions: 0 is no effect, 100 is complete control
Procedure, shortened: as §1

[12] = tested on: wheat (Triticum aestivum); experiment: Test A postemergence, visual injury rating; conditions: 0 is no effect, 100 is complete control
Procedure, shortened: as §1

[13] = tested on: pigweed (Amaranthus retroflexus); experiment: Test A postemergence, visual injury rating; conditions: 0 is no effect, 100 is complete control
Procedure, shortened: as §1

[14] = tested on: velvetleaf (Abutilon theophrasti); experiment: Test A postemergence, visual injury rating; conditions: 0 is no effect, 100 is complete control
Procedure, shortened: as §1

[15] = tested on: morningglory (Ipomoea spp.); experiment: Test A postemergence, visual injury rating; conditions: 0 is no effect, 100 is complete control
Procedure, shortened: as §1

corn (Zea mays) [16] = experiment: Test A postemergence, visual injury rating; conditions: 0 is no effect, 100 is complete control
Procedure, shortened: as §1

[17] = tested on: barnyardgrass (Echinochloa crus-galli); experiment: Test B flooded paddy test, plant response rating; conditions: 250 g ai/ha; Flood; scale of 0 to 100 where 0 is no effect and 100 is complete control; 13 to 15 days
Procedure, shortened: (§2)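 Greenhouse pots flooded to 3 cm above soil at time of treatment received compound via the water, which stayed at that level.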

rice (Oryza sativa) = experiment: Test B flooded paddy test, plant response rating; conditions: 250 g ai/ha; Flood; scale of 0 to 100 where 0 is no effect and 100 is complete control; 13 to 15 days
Procedure, shortened: as §2

[18] = tested on: ducksalad (Heteranthera limosa); experiment: Test B flooded paddy test, plant response rating; conditions: 250 g ai/ha; Flood; scale of 0 to 100 where 0 is no effect and 100 is complete control; 13 to 15 days
Procedure, shortened: as §2

[19] = tested on: sedge, umbrella (small-flower umbrella sedge, Cyperus difformis); experiment: Test B flooded paddy test, plant response rating; conditions: 250 g ai/ha; Flood; scale of 0 to 100 where 0 is no effect and 100 is complete control; 13 to 15 days
Procedure, shortened: as §2

SMILES	Plant response rating, Barnyardgrass [17]	Plant response rating, Rice (rice (Oryza sativa))	Plant response rating, Ducksalad [18]	Plant response rating, Sedge, Umbrella [19]	Foxtail, Giant plant response rating ([1]; 1000 g ai/ha)	Barnyardgrass plant response rating ([2]; 1000 g ai/ha)	Crabgrass, Large plant response rating ([3]; 1000 g ai/ha)	Wheat plant response rating ([4]; 1000 g ai/ha)	Pigweed plant response rating ([5]; 1000 g ai/ha)	Velvetleaf plant response rating ([6]; 1000 g ai/ha)	Corn plant response rating (corn (Zea mays) [8]; 1000 g ai/ha)	Foxtail, Giant plant response rating (0 to 100 scale) ([9]; 1000 g ai/ha)	Barnyardgrass plant response rating (0 to 100 scale) ([10]; 1000 g ai/ha)	Crabgrass, Large plant response rating (0 to 100 scale) ([11]; 1000 g ai/ha)	Wheat plant response rating (0 to 100 scale) ([12]; 1000 g ai/ha)	Pigweed plant response rating (0 to 100 scale) ([13]; 1000 g ai/ha)	Velvetleaf plant response rating (0 to 100 scale) ([14]; 1000 g ai/ha)	Corn plant response rating (0 to 100 scale) (corn (Zea mays) [16]; 1000 g ai/ha)	Morningglory plant response rating ([7]; 1000 g ai/ha)	Morningglory plant response rating (0 to 100 scale) ([15]; 1000 g ai/ha)	also measured
O=C(NCC(F)(F)F)c1ccccc1Oc1ncc(Cl)cn1 [Compound 28, 2-[(5-chloro-2-pyrimidinyl)oxy]-N-(2,2,2-trifluoroethyl)benzamide]																					pest or weed control at 500 g/ha ([1]; Setaria faberi, pre-emergence, 240 h, 500 g ai/ha, read-out: Foxtail, Giant plant response rating): 20%; pest or weed control at 500 g/ha ([2]; Echinochloa crus-galli, pre-emergence, 240 h, 500 g ai/ha, read-out: Barnyardgrass plant response rating): 20%; Crabgrass, Large plant response rating ([3]; 500 g ai/ha): 50; Wheat plant response rating ([4]; 500 g ai/ha): 0; pest or weed control at 500 g/ha ([5]; Amaranthus retroflexus, pre-emergence, 240 h, 500 g ai/ha, read-out: Pigweed plant response rating): 80%; Velvetleaf plant response rating ([6]; 500 g ai/ha): 20; Morningglory plant response rating ([7]; 500 g ai/ha): 0; Corn plant response rating (corn (Zea mays) [8]; 500 g ai/ha): 0; pest or weed control at 500 g/ha ([9]; Setaria faberi, post-emergence, 240 h, 500 g ai/ha, read-out: Foxtail, Giant plant response rating (0 to 100 scale)): 0%; pest or weed control at 500 g/ha ([10]; Echinochloa crus-galli, post-emergence, 240 h, 500 g ai/ha, read-out: Barnyardgrass plant response rating (0 to 100 scale)): 20%; Crabgrass, Large plant response rating (0 to 100 scale) ([11]; 500 g ai/ha): 0; plant injury at 500 g/ha ([12]; Triticum aestivum, post-emergence, 240 h, 500 g ai/ha, read-out: Wheat plant response rating (0 to 100 scale)): 0%; pest or weed control at 500 g/ha ([13]; Amaranthus retroflexus, post-emergence, 240 h, 500 g ai/ha, read-out: Pigweed plant response rating (0 to 100 scale)): 20%; Velvetleaf plant response rating (0 to 100 scale) ([14]; 500 g ai/ha): 30; Morningglory plant response rating (0 to 100 scale) ([15]; 500 g ai/ha): 0; plant injury at 500 g/ha (corn (Zea mays) [16]; Zea mays, post-emergence, 240 h, 500 g ai/ha, read-out: Corn plant response rating (0 to 100 scale)): 0%
CC(=NOC(C)C)c1ccccc1Oc1ncc(Cl)cn1 [Compound 56]	0	0	0	0	100	90	100	0	100	90	0	70	50	40	10	60	100	30			
O=C(NCC(F)(F)F)c1ccccc1Oc1ncc(Br)cn1 [Compound 27]																					Foxtail, Giant plant response rating ([1]; 500 g ai/ha): 0; Barnyardgrass plant response rating ([2]; 500 g ai/ha): 0; Crabgrass, Large plant response rating ([3]; 500 g ai/ha): 0; Wheat plant response rating ([4]; 500 g ai/ha): 0; Pigweed plant response rating ([5]; 500 g ai/ha): 0; Velvetleaf plant response rating ([6]; 500 g ai/ha): 0; Morningglory plant response rating ([7]; 500 g ai/ha): 0; Corn plant response rating (corn (Zea mays) [8]; 500 g ai/ha): 0; Foxtail, Giant plant response rating (0 to 100 scale) ([9]; 500 g ai/ha): 0; Barnyardgrass plant response rating (0 to 100 scale) ([10]; 500 g ai/ha): 0; Crabgrass, Large plant response rating (0 to 100 scale) ([11]; 500 g ai/ha): 0; Wheat plant response rating (0 to 100 scale) ([12]; 500 g ai/ha): 0; Pigweed plant response rating (0 to 100 scale) ([13]; 500 g ai/ha): 0; Velvetleaf plant response rating (0 to 100 scale) ([14]; 500 g ai/ha): 0; Morningglory plant response rating (0 to 100 scale) ([15]; 500 g ai/ha): 0; Corn plant response rating (0 to 100 scale) (corn (Zea mays) [16]; 500 g ai/ha): 0
CC(=NOC(C)(C)C)c1ccccc1Oc1ncc(Cl)cn1 [Compound 59]					30	20	80	0	30	0	0	10	0	10	30	30		20	0	0	
CON=C(C)c1ccccc1Oc1ncc(Cl)cn1 [Compound 55]					0	0	0	0	0	0	0	10	0	0	0	0	10	0			
CC(=NOCc1ccccc1)c1ccccc1Oc1ncc(Cl)cn1 [Compound 58]	0	0	0	0	100	90	100	20	50	20	20	60	40	80	20	100	90	30	0	30	
CC(C)ON=Cc1ccccc1Oc1ncc(Cl)cn1 [Compound 57]	0	0	0	0	90	50	100	0	60	20	0	20	20	30	20	40		20	0	10	
